Molecules are shown by their SMILES. Some results are limits rather than exact numbers.

In the experiment the target is T1, RANTES/MIP-1α chemokine receptor (CCR1) in THP-1 cell membranes (Homo sapiens, UniProt P32246).
T1 construct: Membranes were prepared from THP-1 cells (ATCC #TIB202); host or cells: THP-1 cells (membrane preparation)
T1 sequence (P32246 1-355): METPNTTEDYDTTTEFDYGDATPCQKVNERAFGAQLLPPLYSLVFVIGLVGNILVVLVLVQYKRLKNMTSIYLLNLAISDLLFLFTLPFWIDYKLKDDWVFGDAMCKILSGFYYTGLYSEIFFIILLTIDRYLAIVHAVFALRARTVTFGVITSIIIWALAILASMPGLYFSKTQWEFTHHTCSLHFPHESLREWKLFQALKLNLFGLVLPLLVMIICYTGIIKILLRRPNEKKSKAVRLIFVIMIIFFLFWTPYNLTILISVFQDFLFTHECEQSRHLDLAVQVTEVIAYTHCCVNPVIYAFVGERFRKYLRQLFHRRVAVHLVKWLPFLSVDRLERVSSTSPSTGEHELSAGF
As to the kind of experiment: Receptor binding assay: 125I-RANTES or 125I-MIP-1α binding to THP-1 cell membranes. Particulars: inhibitor concentration required for 50% inhibition of specific binding; 125I-RANTES or 125I-MIP-1α as ligand, THP-1 cell membranes; read-out: IC50.
A word on the IC50: it is the concentration that inhibits the measured activity by half. In the case of `COc1ccc2c(c1)C(=CCCN1CCC(n3c(=O)n(C)c4ccccc43)CC1)c1cccnc1CO2` [Example 68, 1-[3-(5,11-Dihydro-7-methoxy[1]benzoxepino[2,3-b]pyridin-5-ylidene)propyl]-4-(2-keto-3-methyl-1-benzimidazolinyl)piperidine], the IC50 was less than 10 µM.
Take `COc1ccc2c(c1)C(=CCCN1CCC(O)(c3ccc(C)cc3)CC1)c1cccnc1CO2` [Example 78, 1-[3-(5,11-Dihydro-7-methoxy[1]benzoxepino[2,3-b]pyridin-5-ylidene)propyl]-4-(p-toly)piperidin-4-ol]: the IC50 is less than 1 µM.
For `COc1ccc2c(c1)C(=CCCN1CCN(S(=O)(=O)c3ccc(C)cc3)CC1)c1cccnc1CO2` [Example 89, 1-[3-(5,11-Dihydro-7-methoxy[1]benzoxepino[2,3-b]pyridin-5-ylidene)propyl]-4-(p-tosyl)piperazine], the IC50 is more than 10 µM.
Then `CN(C)CCOc1ccc2c(c1)C(=CCCN1CCC(O)(c3ccc(Cl)cc3)CC1)c1cccnc1CO2` [Example 131], with less than 1 µM.
Regarding `OC1(c2ccc(Cl)cc2)CCN(CCC=C2c3cc(OCc4nnn[nH]4)ccc3OCc3ncccc32)CC1` [Example 132], the IC50 was less than 1 µM.
Turning to `CCOC(=O)COc1ccc2c(c1)C(=CCCN1CCC(c3ccc(Cl)cc3)CC1)c1cccnc1CO2` [Example 153, 4-(4-Chlorophenyl)-1-[3-(5,11-dihydro-7-thoxycarbonylmethyloxy[1]benzoxepino[2,3-b]pyridin-5-ylidene)propyl]piperidine], the IC50 is less than 1 µM.
On to `O=C(O)COc1ccc2c(c1)C(=CCCN1CCC(c3ccc(Cl)cc3)CC1)c1cccnc1CO2` [Example 154], for which the 50% inhibitory concentration (IC50) was less than 1 µM.
In the case of `COCCOc1ccc2c(c1)C(=CCCN1CCC(O)(c3ccc(Cl)cc3)CC1)c1cccnc1CO2` [Example 175], the IC50 is less than 1 µM.
In the case of `CN(C)C(=O)C(C)(C)Oc1ccc2c(c1)C(=CCCN1CCC(O)(c3ccc(Cl)cc3)CC1)c1cccnc1CO2` [Example 176, 4-(4-Chlorophenyl)-1-[3-(7-(1-dimethyaminocarbonyl-1-methyl)ethyloxy-5,11-dihydro[1]benzoxepino[2,3-b]pyridin-5-ylidene)propyl]piperidin-4-ol] it was less than 1 µM.
Consider `O=C(O)C1(Oc2ccc3c(c2)C(=CCCN2CCC(O)(c4ccc(Cl)cc4)CC2)c2cccnc2CO3)CCC1` [Example 180, 1-[3-(7-(1-Carboxy)cyclbutoxy-5,11-dihydro[1]benzoxepino[2,3-b]pyridin-5-ylidene)propyl]-4-(4-chlorophenyl)piperidin-4-ol], for which the half-inhibitory concentration (IC50) was less than 1 µM.
`Oc1ccc2c(c1)C(=CCCN1CC=C(c3ccc(Cl)cc3)CC1)c1cccnc1CO2` [Example 193]: the IC50 was less than 1 µM.
Take `CC(C)(CO)Oc1ccc2c(c1)C(=CCCN1CCC(O)(c3ccc(Cl)cc3)CC1)c1cccnc1CO2` [Example 199, 4-(4-Chlorophenyl)-1-[3-(7-(2-(1-hydroxy-2-methyl)propyl)oxy-5,11-dihydro[1]benzoxepino[2,3-b]pyridin-5-ylidene)propyl]piperidin-4-ol]: the 50% inhibitory concentration (IC50) is less than 1 µM.
For the compound `CC(C)(O)COc1ccc2c(c1)C(=CCCN1CCC(O)(c3ccc(Cl)cc3)CC1)c1cccnc1CO2` [Example 200, 4-(4-Chlorophenyl)-1-[3-(7-(1-(2-methyl-2-hydroxy)propyl)oxy-5,11-dihydro[1]benzoxepino[2,3-b]pyridin-5-ylidene)propyl]piperidin-4-ol], the IC50 was less than 1 µM.
In the case of `CCOCCOc1ccc2c(c1)C(=CCCN1CCC(O)(c3ccc(Cl)cc3)CC1)c1cccnc1CO2` [Example 203] it was less than 1 µM; in that of `OCC(O)COc1ccc2c(c1)C(=CCCN1CCC(O)(c3ccc(Cl)cc3)CC1)c1cccnc1CO2` (stereo not drawn) [Example 205, 4-(4-Chlorophenyl)-1-[3-(5,11-dihydro-7-(1-(2,3-dihydroxy)propyloxy)[1]benzoxepino[2,3-b]pyridin-5-ylidene)propyl]piperidin-4-ol], less than 1 µM.

These data come from US8653096B2, “Chemokine receptor antagonists and methods of use thereof” (Millennium Pharmaceuticals, Inc., priority 2001, dated 2014).
